The source of these data is patent US10251892B2, “Bicyclic heterocycles as FGFR4 inhibitors” (Incyte Corporation, priority 2015, dated 2019).

Each structure is given as a SMILES string.

FGFR3 enzyme, sequence (P22607 23-806): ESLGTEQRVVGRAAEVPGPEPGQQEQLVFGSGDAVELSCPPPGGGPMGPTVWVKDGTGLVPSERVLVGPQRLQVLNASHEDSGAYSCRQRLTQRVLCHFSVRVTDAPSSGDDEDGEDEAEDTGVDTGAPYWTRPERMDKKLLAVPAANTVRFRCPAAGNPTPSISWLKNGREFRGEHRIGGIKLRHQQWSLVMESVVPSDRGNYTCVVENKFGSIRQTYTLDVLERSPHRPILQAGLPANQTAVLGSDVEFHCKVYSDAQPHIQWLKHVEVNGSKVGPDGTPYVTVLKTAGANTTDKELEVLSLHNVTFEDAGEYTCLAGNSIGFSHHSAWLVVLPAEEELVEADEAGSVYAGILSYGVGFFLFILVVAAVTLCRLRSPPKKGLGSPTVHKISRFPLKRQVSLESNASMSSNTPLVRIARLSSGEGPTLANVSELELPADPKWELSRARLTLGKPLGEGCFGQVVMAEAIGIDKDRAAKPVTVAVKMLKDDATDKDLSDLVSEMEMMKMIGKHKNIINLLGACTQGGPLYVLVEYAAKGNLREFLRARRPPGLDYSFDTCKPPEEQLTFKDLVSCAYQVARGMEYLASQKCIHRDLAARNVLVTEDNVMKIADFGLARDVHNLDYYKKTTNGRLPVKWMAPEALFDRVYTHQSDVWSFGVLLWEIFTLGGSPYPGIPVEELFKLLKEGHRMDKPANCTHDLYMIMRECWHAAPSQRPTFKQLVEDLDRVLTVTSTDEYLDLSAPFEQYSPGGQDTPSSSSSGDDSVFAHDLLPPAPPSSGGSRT

This assay addresses FGFR3 enzyme (Homo sapiens (Human), UniProt P22607). Briefly: FGFR Enzymatic Assay (peptide phosphorylation, FRET), FGFR3. As to conditions: IC50 ratio showing FGFR3 selectivity; pre-incubated for 4 hours. Type of assay: biochemical. The method, then: The inhibitor potency of the exemplified compounds was measured in an enzyme assay that measures peptide phosphorylation using FRET measurements to detect product formation. Inhibitors were serially diluted in DMSO and a volume of 0.5 μL was transferred to the wells of a 384-well plate.
GraphPad prism3 was used to analyze the data.
As for `COc1cc(OC)c(F)c(N2Cc3cnc(-c4cn(C)nc4C)cc3N(c3cn[nH]c3)C2=O)c1F` [Example 129, 3-(2,6-difluoro-3,5-dimethoxyphenyl)-7-(1,3-dimethyl-1H-pyrazol-4-yl)-1-(1H-pyrazol-4-yl)-3,4-dihydropyrido[4,3-d]pyrimidin-2(1H)-one], the FGFR1/FGFR3 is recorded as over 5 and the FGFR4/FGFR3 is reported as over 10.

For the molecule `COc1cc(OC)c(F)c(N2Cc3cnc(-c4cn(C)nc4C)cc3N(c3cnn(C4CC4)c3)C2=O)c1F` [Example 130, 1-(1-cyclopropyl-1H-pyrazol-4-yl)-3-(2,6-difluoro-3,5-dimethoxyphenyl)-7-(1,3-dimethyl-1H-pyrazol-4-yl)-3,4-dihydropyrido[4,3-d]pyrimidin-2(1H)-one], the FGFR1/FGFR3 is recorded as over 5 and the FGFR4/FGFR3 is reported as over 5.

`CCn1cc(N2C(=O)N(c3c(F)c(OC)cc(OC)c3F)Cc3cnc(-c4cn(C)nc4C)cc32)cn1` [Example 131, 3-(2,6-difluoro-3,5-dimethoxyphenyl)-7-(1,3-dimethyl-1H-pyrazol-4-yl)-1-(1-ethyl-1H-pyrazol-4-yl)-3,4-dihydropyrido[4,3-d]pyrimidin-2(1H)-one]: the FGFR1/FGFR3 is over 3 and the FGFR4/FGFR3 is reported as over 10.

On to `CCCn1cc(N2C(=O)N(c3c(F)c(OC)cc(OC)c3F)Cc3cnc(-c4cn(C)nc4C)cc32)cn1` [Example 132, 3-(2,6-difluoro-3,5-dimethoxyphenyl)-7-(1,3-dimethyl-1H-pyrazol-4-yl)-1-(1-propyl-1H-pyrazol-4-yl)-3,4-dihydropyrido[4,3-d]pyrimidin-2(1H)-one], for which the FGFR1/FGFR3 was over 3 and the FGFR4/FGFR3 was over 5.

For the molecule `COc1cc(OC)c(F)c(N2Cc3cnc(-c4cn(C)nc4C)cc3N(c3ccc4cn[nH]c4c3)C2=O)c1F` [Example 133, 3-(2,6-difluoro-3,5-dimethoxyphenyl)-7-(1,3-dimethyl-1H-pyrazol-4-yl)-1-(1H-indazol-6-yl)-3,4-dihydropyrido[4,3-d]pyrimidin-2(1H)-one], the FGFR1/FGFR3 is on record as over 3 and the FGFR4/FGFR3 was over 5.

In the case of `COc1cc(OC)c(F)c(N2Cc3cnc(-c4cn(C)nc4C)cc3N(c3ccc4[nH]ncc4c3)C2=O)c1F` [Example 134, 3-(2,6-difluoro-3,5-dimethoxyphenyl)-7-(1,3-dimethyl-1H-pyrazol-4-yl)-1-(1H-indazol-5-yl)-3,4-dihydropyrido[4,3-d]pyrimidin-2(1H)-one], the FGFR1/FGFR3 is listed as over 3 and the FGFR4/FGFR3 is reported as over 5.

As for `COc1cc(OC)c(F)c(N2Cc3cnc(-c4ccc(C5(C#N)CCC5)nc4)cc3N(c3ccncn3)C2=O)c1F` [Example 135, 1-(5-(3-(2,6-difluoro-3,5-dimethoxyphenyl)-2-oxo-1-(pyrimidin-4-yl)-1,2,3,4-tetrahydropyrido[4,3-d]pyrimidin-7-yl)pyridin-2-yl)cyclobutanecarbonitrile], the FGFR1/FGFR3 was over 5 and the FGFR4/FGFR3 is over 10.

With `COc1cc(OC)c(F)c(N2Cc3cnc(-c4cn(CCCN5CCOCC5)nc4C)cc3C3(CC3)C2=O)c1F` [Example 146, 2′-(2,6-difluoro-3,5-dimethoxyphenyl)-6′-(3-methyl-1-(3-morpholinopropyl)-1H-pyrazol-4-yl)-1′H-spiro[cyclopropane-1,4′-[2,7]naphthyridin]-3′(2′H)-one], the FGFR1/FGFR3 is given as over 10 and the FGFR4/FGFR3 was over 5.

As to `COc1cc(OC)c(F)c(N2Cc3cnc(-c4cnn(C5CCN(S(C)(=O)=O)C5)c4)cc3C3(CC3)C2=O)c1F` (stereo not shown) [Example 147, 2′-(2,6-difluoro-3,5-dimethoxyphenyl)-6′-(1-(1-(methylsulfonyl)pyrrolidin-3-yl)-1H-pyrazol-4-yl)-1′H-spiro[cyclopropane-1,4′-[2,7]naphthyridin]-3′(2′H)-one], the FGFR1/FGFR3 is reported as over 10 and the FGFR4/FGFR3 was over 3.

Consider `COc1cc(OC)c(F)c(N2Cc3cnc(-c4cnn(CCC5CCN(S(C)(=O)=O)CC5)c4)cc3C3(CC3)C2=O)c1F` [Example 148, 2′-(2,6-difluoro-3,5-dimethoxyphenyl)-6′-(1-(2-(1-(methylsulfonyl)piperidin-4-yl)ethyl)-1H-pyrazol-4-yl)-1′H-spiro[cyclopropane-l,4′-[2,7]naphthyridin]-3′(2′H)-one], for which the FGFR1/FGFR3 was over 10 and the FGFR4/FGFR3 is given as over 3.

For the molecule `COc1cc(OC)c(F)c(N2Cc3cnc(-c4cnn(C5(C#N)CCC5)c4C)cc3C3(CC3)C2=O)c1F` [Example 149, 1-(4-(2′-(2,6-difluoro-3,5-dimethoxyphenyl)-3′-oxo-2′,3′-dihydro-1′H-spiro[cyclopropane-1,4′-[2,7]naphthyridine]-6′-yl)-5-methyl-1H-pyrazol-1-yl)cyclobutanecarbonitrile], the FGFR1/FGFR3 is recorded as over 5 and the FGFR4/FGFR3 is given as over 3.

For `COc1cc(OC)c(F)c(N2Cc3cnc(-c4cnn(C5CCN(C(C)=O)C5)c4)cc3C3(CC3)C2=O)c1F` (stereo not shown) [Example 150, 6′-(1-(1-acetylpyrrolidin-3-yl)-1H-pyrazol-4-yl)-2′-(2,6-difluoro-3,5-dimethoxyphenyl)-1′H-spiro[cyclopropane-1,4′-[2,7]naphthyridin]-3′(2′H)-one], the FGFR1/FGFR3 is over 5 and the FGFR4/FGFR3 is recorded as over 5.

On to `COc1cc(OC)c(F)c(N2Cc3cnc(-c4cnn(CCCN5CCOCC5)c4)cc3C3(CC3)C2=O)c1F` [Example 151, 2′-(2,6-difluoro-3,5-dimethoxyphenyl)-6′-(1-(3-morpholinopropyl)-1H-pyrazol-4-yl)-1′H-spiro[cyclopropane-1,4′-[2,7]naphthyridin]-3′(2′H)-one], for which the FGFR1/FGFR3 is over 5 and the FGFR4/FGFR3 is reported as over 5.

With `COc1cc(OC)c(F)c(N2Cc3cnc(-c4cnn(CCN5CCC(OC)CC5)c4)cc3C3(CC3)C2=O)c1F` [Example 152, 2′-(2,6-difluoro-3,5-dimethoxyphenyl)-6′-(1-(2-(4-methoxypiperidin-1-yl)ethyl)-1H-pyrazol-4-yl)-1′H-spiro[cyclopropane-1,4′-[2,7]naphthyridin]-3′(2′H)-one], the FGFR1/FGFR3 was over 5 and the FGFR4/FGFR3 is over 3.

As for `COc1cc(OC)c(F)c(N2Cc3cnc(-c4cn(CC#N)nc4C)cc3C3(CC3)C2=O)c1F` [Example 153, 2-(4-(2′-(2,6-difluoro-3,5-dimethoxyphenyl)-3′-oxo-2′,3′-dihydro-1′H-spiro[cyclopropane-1,4′-[2,7]naphthyridine]-6′-yl)-3-methyl-1H-pyrazol-1-yl)acetonitrile], the FGFR1/FGFR3 is over 5 and the FGFR4/FGFR3 is on record as over 3.

Turning to `COc1cc(OC)c(F)c(N2Cc3cnc(-c4cn(C5CCN(CC#N)C5)nc4C)cc3C3(CC3)C2=O)c1F` (stereo not shown) [Example 154, 2-(3-(4-(2′-(2,6-difluoro-3,5-dimethoxyphenyl)-3′-oxo-2′,3′-dihydro-1′H-spiro[cyclopropane-1,4′-[2,7]naphthyridine]-6′-yl)-3-methyl-1H-pyrazol-1-yl)pyrrolidin-1-yl)acetonitrile], the FGFR1/FGFR3 is reported as over 5 and the FGFR4/FGFR3 is given as over 3.

Turning to `COc1cc(OC)c(F)c(N2Cc3cnc(-c4cn(Cc5cccnc5)nc4C)cc3C3(CC3)C2=O)c1F` [Example 155, 2′-(2,6-difluoro-3,5-dimethoxyphenyl)-6′-(3-methyl-1-(pyridin-3-ylmethyl)-1H-pyrazol-4-yl)-1′H-spiro[cyclopropane-1,4′-[2,7]naphthyridin]-3′(2′H)-one], the FGFR1/FGFR3 is over 5 and the FGFR4/FGFR3 is given as over 1.

On to `COc1cc(OC)c(F)c(N2Cc3cnc(-c4cn(CCC#N)nc4C)cc3C3(CC3)C2=O)c1F` [Example 156, 3-(4-(2′-(2,6-difluoro-3,5-dimethoxyphenyl)-3′-oxo-2′,3′-dihydro-1′H-spiro[cyclopropane-1,4′-[2,7]naphthyridine]-6′-yl)-3-methyl-1H-pyrazol-1-yl)propanenitrile], for which the FGFR1/FGFR3 is listed as over 5 and the FGFR4/FGFR3 was over 1.

Consider `COc1cc(OC)c(F)c(N2Cc3cnc(-c4cnn(CCN5CCOCC5)c4)cc3C3(CC3)C2=O)c1F` [Example 157, 2′-(2,6-difluoro-3,5-dimethoxyphenyl)-6′-(1-(2-morpholinoethyl)-1H-pyrazol-4-yl)-1′H-spiro[cyclopropane-1,4′-[2,7]naphthyridin]-3′(2′H)-one], for which the FGFR1/FGFR3 is given as over 5 and the FGFR4/FGFR3 was over 3.

With `CCn1cc(-c2cc3c(cn2)CN(c2c(F)c(OC)cc(OC)c2F)C(=O)C32CC2)c(C)n1` [Example 158, 2′-(2,6-difluoro-3,5-dimethoxyphenyl)-6′-(1-ethyl-3-methyl-1H-pyrazol-4-yl)-1′H-spiro[cyclopropane-1,4′-[2,7]naphthyridin]-3′(2′H)-one], the FGFR1/FGFR3 was over 5 and the FGFR4/FGFR3 is recorded as over 3.

`COc1cc(OC)c(F)c(N2Cc3cnc(-c4cn(CC(=O)N5CCOCC5)nc4C)cc3C3(CC3)C2=O)c1F` [Example 159, 2′-(2,6-difluoro-3,5-dimethoxyphenyl)-6′-(3-methyl-1-(2-morpholino-2-oxoethyl)-1H-pyrazol-4-yl)-1′H-spiro[cyclopropane-1,4′-[2,7]naphthyridin]-3′(2′H)-one]: the FGFR1/FGFR3 is recorded as over 5 and the FGFR4/FGFR3 is on record as over 3.

For the molecule `COc1cc(OC)c(F)c(N2Cc3cnc(-c4csc(N(C)C)n4)cc3C3(CC3)C2=O)c1F` [Example 160, 2′-(2,6-difluoro-3,5-dimethoxyphenyl)-6′-(2-(dimethylamino)thiazol-4-yl)-1′H-spiro[cyclopropane-1,4′-[2,7]naphthyridin]-3′(2′H)-one], the FGFR1/FGFR3 is given as over 5 and the FGFR4/FGFR3 was over 5.

`COc1cc(OC)c(F)c(N2Cc3cnc(-c4cnn(CCN5CCC(OC)C5)c4)cc3C3(CC3)C2=O)c1F` (stereo not shown) [Example 161, 2′-(2,6-difluoro-3,5-dimethoxyphenyl)-6′-(1-(2-(3-methoxypyrrolidin-1-yl)ethyl)-1H-pyrazol-4-yl)-1′H-spiro[cyclopropane-1,4′-[2,7]naphthyridin]-3′(2′H)-one]: the FGFR1/FGFR3 is over 5 and the FGFR4/FGFR3 was over 3.
